Data published in BigSolDB 2.1.

CC(C)(C)c1cc(O)c(C(C)(C)C)cc1O
Conditions	solubility (mole fraction)
in acetone, 283.35 K	0.0332
in acetone, 285.65 K	0.0365
in acetone, 288.25 K	0.0413
in acetone, 290.55 K	0.0456
in acetone, 293.15 K	0.0519
in acetone, 295.35 K	0.057
in acetone, 298.05 K	0.0636
in acetone, 300.35 K	0.0691
in acetone, 303.15 K	0.0775
in acetone, 305.45 K	0.0836
in acetone, 308.05 K	0.0929
in acetone, 310.25 K	0.1
in acetone, 313.05 K	0.12
in acetone, 316.15 K	0.123
in acetone, 319.15 K	0.136
in acetone, 321.15 K	0.148
in acetone, 323.15 K	0.161
in ethyl acetate, 278.95 K	0.144
in ethyl acetate, 281.55 K	0.145
in ethyl acetate, 284.45 K	0.146
in ethyl acetate, 287.35 K	0.148
in ethyl acetate, 290.45 K	0.148
in ethyl acetate, 293.15 K	0.15
in ethyl acetate, 296.25 K	0.151
in ethyl acetate, 298.85 K	0.153
in ethyl acetate, 301.85 K	0.155
in ethyl acetate, 304.75 K	0.157
in ethyl acetate, 307.45 K	0.158
in ethyl acetate, 310.45 K	0.161
in ethyl acetate, 312.35 K	0.163
in ethyl acetate, 316.15 K	0.166
in ethyl acetate, 319.15 K	0.169
in ethyl acetate, 322.15 K	0.17
in ethyl acetate, 325.15 K	0.173
in ethyl acetate, 328.15 K	0.177
in ethyl acetate, 331.15 K	0.18
in ethyl acetate, 335.15 K	0.183
in ethyl acetate, 337.15 K	0.186
in ethyl acetate, 340.15 K	0.188
in ethyl acetate, 343.15 K	0.194
in ethyl acetate, 346.15 K	0.195
in methanol, 280.95 K	0.0647
in methanol, 283.55 K	0.065
in methanol, 285.95 K	0.0651
in methanol, 288.15 K	0.0653
in methanol, 290.65 K	0.0658
in methanol, 293.15 K	0.0667
in methanol, 295.55 K	0.0678
in methanol, 297.95 K	0.0688
in methanol, 300.65 K	0.0697
in methanol, 302.65 K	0.0707
in methanol, 305.15 K	0.0712
in methanol, 307.25 K	0.072
in methanol, 309.85 K	0.0727
in methanol, 312.05 K	0.0734
in methanol, 316.15 K	0.0766
in methanol, 319.15 K	0.078
in methanol, 322.15 K	0.08
in methanol, 325.15 K	0.0811
in methanol, 328.15 K	0.0833
in methanol, 331.15 K	0.0849
in methanol, 333.15 K	0.0863
